How the values were obtained:
[1] = system: Erysiphe graminis (powdery mildew); experiment: Control of powdery mildew on wheat plants, spraying one day after inoculation; assay type: in vivo; details: sprayed one day after inoculation
Experimental: (§1) Wheat plants were inoculated with Erysiphe graminis (powdery mildew). Two days after inoculation, they were sprayed with fluquinconazole, obtained by diluting with water to the desired concentration, a suspension concentrate comprising 10% by weight active ingredient, or azoxystrobin obtained by diluting with water to the desired concentration, the commercial product sold under the trade name "Amistar", or mixtures of these. One week after inoculation, the wheat was assessed for control of disease. To indicate the existence of synergism between the active components the results were treated in the manner described by Colby S.R., "Calculating Synergistic and Antagonistic Responses of Herbicide Combinations" in Weeds 1967 15, 20-22). In this method the "expected" percent control of growth, E, of the combination compared with untreated control is given by the equation E = A + F -(AF)/(100) [formula] where A is the % control by azoxystrobin used alone at a given concentration and F is the % control by fluquinconazole, used alone at a given concentration. […] In the table, component "az" is azoxystrobin and "fq" is fluquinconazole. Table 1 In a similar manner, Example 1 was repeated with spraying one day after inoculation. The results are as follows Table 2

[2] = system: Erysiphe graminis (powdery mildew); experiment: Control of powdery mildew on wheat plants, spraying two days after inoculation; assay type: in vivo; details: sprayed two days after inoculation, assessed one week after inoculation
Experimental: as §1, with “fluquinconazole.” for “fluquinconazole. Table 1 In a similar manner, Example 1 was repeated with spraying one day after inoculation. The results are as follows Table 2”

CO/C=C(/C(=O)OC)c1ccccc1Oc1cc(Oc2ccccc2C#N)ncn1 [az, methyl (E)-2-{2-[6-(2-cyanophenoxy)pyrimidin-4-yloxy]phenyl}-3-methoxyacrylate]
% Control Observed ([1]; az 31.25 g cpd/ha): 0%
% Control Observed ([1]; az 62.5 g cpd/ha): 0%
% Control Observed ([2]; az 31.25 g cpd/ha): 10%
% Control Observed ([2]; az 62.5 g cpd/ha): 12%
% Control Observed ([2]; az 125 g cpd/ha): 42%
% Control Observed ([2]; az 187.5 g cpd/ha): 62%

O=c1c2cc(F)ccc2nc(-n2cncn2)n1-c1ccc(Cl)cc1Cl [fq, 3-(2,4-dichlorophenyl)-6-fluoro-2-((1H)-1,2,4-triazol-1-yl)-4(3H)-quinazolinone]
% Control Observed ([1]; fq 15.25 g cpd/ha): 12%
% Control Observed ([1]; fq 31.25 g cpd/ha): 68%
% Control Observed ([2]; fq 15.25 g cpd/ha): 24%
% Control Observed ([2]; fq 31.25 g cpd/ha): 70%
